Numbers after ± are expanded uncertainties.
Settings: 298.15 K; 101.33 kPa; Liquid; Pycnometric method

| Compound | mass density |
| --- | --- |
| CC(C)O [propan-2-ol] | 781.34 ± 0.7 kg/m3 |
| CCO [ethanol] | 785.29 ± 0.71 kg/m3 |
| CCC(C)O (stereo not drawn) [butan-2-ol] | 802.73 ± 0.72 kg/m3 |
| CCCO [propan-1-ol] | 799.89 ± 0.72 kg/m3 |
| O [water] | 997.17 ± 0.9 kg/m3 |
| CO [methanol] | 786.64 ± 0.71 kg/m3 |
| CCC(C)(C)OC [2-methoxy-2-methylbutane] | 765.68 ± 0.69 kg/m3 |
| CCCCO [butan-1-ol] | 805.87 ± 0.72 kg/m3 |
